Source: ChEMBL document CHEMBL1137188, “Substituted 6-phenyl-pyridin-2-ylamines: selective and potent inhibitors of neuronal nitric oxide synthase” (Bioorg Med Chem Lett, 2004)

Tests used:
[1] = biological target: Nitric oxide synthase 1 (Homo sapiens, UniProt P29475); experiment: Inhibitory activity against neuronal nitric oxide synthase in human
[2] = biological target: T1, Nitric oxide synthase 3 (Homo sapiens, UniProt P29474); experiment: Inhibitory activity against endothelial nitric oxide synthase in human
T1 sequence (P29474 whole entry): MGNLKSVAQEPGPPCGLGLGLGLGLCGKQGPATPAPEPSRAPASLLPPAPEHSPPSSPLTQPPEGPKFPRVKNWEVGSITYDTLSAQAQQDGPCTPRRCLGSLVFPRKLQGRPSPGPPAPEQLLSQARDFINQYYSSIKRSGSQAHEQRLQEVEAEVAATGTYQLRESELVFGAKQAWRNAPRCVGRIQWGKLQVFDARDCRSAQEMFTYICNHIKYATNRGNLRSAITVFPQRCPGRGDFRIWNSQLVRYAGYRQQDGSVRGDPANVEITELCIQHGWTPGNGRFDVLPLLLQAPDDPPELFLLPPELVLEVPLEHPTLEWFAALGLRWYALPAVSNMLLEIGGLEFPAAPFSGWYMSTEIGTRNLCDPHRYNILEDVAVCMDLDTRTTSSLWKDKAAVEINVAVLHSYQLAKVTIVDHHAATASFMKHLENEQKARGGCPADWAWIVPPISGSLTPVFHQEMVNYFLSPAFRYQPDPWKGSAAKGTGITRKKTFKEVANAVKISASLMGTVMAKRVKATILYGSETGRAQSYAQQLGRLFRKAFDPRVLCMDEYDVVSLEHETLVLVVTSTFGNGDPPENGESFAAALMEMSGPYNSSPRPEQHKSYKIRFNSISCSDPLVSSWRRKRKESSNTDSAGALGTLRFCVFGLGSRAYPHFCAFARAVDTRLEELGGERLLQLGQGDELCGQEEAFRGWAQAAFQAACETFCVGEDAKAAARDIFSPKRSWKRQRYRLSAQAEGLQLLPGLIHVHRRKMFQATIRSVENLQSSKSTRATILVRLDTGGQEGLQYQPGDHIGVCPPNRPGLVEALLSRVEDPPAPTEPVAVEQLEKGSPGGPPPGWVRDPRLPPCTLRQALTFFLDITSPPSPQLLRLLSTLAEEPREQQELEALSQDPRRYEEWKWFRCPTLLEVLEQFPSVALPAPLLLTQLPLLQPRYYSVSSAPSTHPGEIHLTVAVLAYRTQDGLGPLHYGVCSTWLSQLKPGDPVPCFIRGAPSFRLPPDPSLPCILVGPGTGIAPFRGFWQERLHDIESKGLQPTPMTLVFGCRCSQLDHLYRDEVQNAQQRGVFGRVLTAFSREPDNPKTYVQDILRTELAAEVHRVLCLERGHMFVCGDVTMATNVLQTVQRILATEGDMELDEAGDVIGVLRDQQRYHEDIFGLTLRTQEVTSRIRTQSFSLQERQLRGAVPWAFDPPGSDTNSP

Sequence of Nitric oxide synthase 1 (P29475 whole entry): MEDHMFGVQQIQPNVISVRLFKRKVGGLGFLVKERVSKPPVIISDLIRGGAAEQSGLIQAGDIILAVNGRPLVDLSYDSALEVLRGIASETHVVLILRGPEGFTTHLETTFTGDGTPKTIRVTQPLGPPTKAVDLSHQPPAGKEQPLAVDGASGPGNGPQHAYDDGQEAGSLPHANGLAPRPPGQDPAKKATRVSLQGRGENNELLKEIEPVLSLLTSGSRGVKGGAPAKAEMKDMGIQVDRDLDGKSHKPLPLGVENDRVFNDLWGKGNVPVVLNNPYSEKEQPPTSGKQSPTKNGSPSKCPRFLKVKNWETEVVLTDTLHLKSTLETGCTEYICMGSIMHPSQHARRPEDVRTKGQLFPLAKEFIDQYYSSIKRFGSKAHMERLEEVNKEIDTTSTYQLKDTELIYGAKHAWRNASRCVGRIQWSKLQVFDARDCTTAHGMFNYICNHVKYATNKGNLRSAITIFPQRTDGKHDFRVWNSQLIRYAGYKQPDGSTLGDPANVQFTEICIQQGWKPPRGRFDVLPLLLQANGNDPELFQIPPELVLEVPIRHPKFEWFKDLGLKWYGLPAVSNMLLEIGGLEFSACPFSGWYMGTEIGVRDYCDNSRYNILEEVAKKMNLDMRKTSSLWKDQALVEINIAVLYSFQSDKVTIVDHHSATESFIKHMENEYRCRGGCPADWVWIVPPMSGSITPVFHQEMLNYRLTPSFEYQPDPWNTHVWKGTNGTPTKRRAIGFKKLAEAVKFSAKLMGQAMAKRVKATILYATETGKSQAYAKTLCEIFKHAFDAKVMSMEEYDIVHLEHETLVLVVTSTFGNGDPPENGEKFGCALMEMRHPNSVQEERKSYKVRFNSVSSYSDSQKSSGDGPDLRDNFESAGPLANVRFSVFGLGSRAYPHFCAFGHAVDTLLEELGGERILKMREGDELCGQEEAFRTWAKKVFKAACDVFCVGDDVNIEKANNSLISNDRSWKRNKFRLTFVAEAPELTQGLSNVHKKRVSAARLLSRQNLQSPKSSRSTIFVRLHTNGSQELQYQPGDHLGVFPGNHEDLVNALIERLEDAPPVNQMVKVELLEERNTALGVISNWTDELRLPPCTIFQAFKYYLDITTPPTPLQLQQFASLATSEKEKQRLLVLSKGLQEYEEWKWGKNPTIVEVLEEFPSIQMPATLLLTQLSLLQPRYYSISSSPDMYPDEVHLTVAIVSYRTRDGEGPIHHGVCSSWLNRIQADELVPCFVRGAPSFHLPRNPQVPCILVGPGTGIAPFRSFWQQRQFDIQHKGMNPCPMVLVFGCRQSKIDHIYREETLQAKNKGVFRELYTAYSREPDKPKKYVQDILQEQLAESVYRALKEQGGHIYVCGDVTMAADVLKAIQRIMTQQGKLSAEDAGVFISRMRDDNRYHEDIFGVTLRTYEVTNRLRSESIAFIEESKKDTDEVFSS

SMILES: CCc1cc(-c2cccc(N)n2)c(OC)cc1CCN(C)C
- IC50 [1]: 75 nM
- IC50 [2]: 16500 nM

SMILES: CCc1cc(-c2cccc(N)n2)c(OC)cc1CN(C)C
- IC50 [2]: 8830 nM

SMILES: COc1cc(-c2cccc(N)n2)c(OC)cc1CCCN(C)C
- IC50 [1]: 200 nM
- IC50 [2]: > 32000 nM

SMILES: CCc1cc(-c2cccc(N)n2)c(OC)cc1CCCN(C)C
- IC50 [1]: 75 nM
- IC50 [2]: > 7700 nM

SMILES: COc1cc(-c2cccc(N)n2)c(OC)cc1OCCN(C)C
- IC50 [1]: 112 nM
- IC50 [2]: 21900 nM

SMILES: COc1cc(-c2cccc(N)n2)c(OC)cc1CN(C)C
- IC50 [1]: 810 nM
- IC50 [2]: > 32000 nM

SMILES: CCc1cc(-c2cccc(N)n2)c(OC)cc1OCCN(C)C
- IC50 [1]: 58 nM
- IC50 [2]: 3710 nM

SMILES: COc1cc(-c2cccc(N)n2)c(OC)cc1CCN(C)C
- IC50 [1]: 235 nM
- IC50 [2]: > 32000 nM
